For orientation: EC50 means the concentration giving half of the maximal effect.

Read-outs that look alike come from different tables or passages of the source.

The test system of this assay is Myotonic Dystrophy 1 affected patient fibroblasts (Coriell GM04602; 1600 CTG repeats). Put plainly: DM1 foci reduction assay (CAG10-Cy3 FISH, average foci per nucleus). Format: cell-based. The following applies: Homo sapiens, Fibroblast. The gist of the method:
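DM1 patient fibroblasts (GM04602, 1600 CTG) treated 48 h at 37 °C, 8-point 1:3 dilutions from 3 μM top dose; wild-type GM07492 as control. PFA-fixed, ethanol-permeabilized cells hybridized overnight with 5 nM CAG10-Cy3 probe, DAPI-counterstained, imaged at 20× in 4 fields; average foci per nucleus per well.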

Setting [1] is: 48 h, read-out: Foci Reduction in Fibroblast EC50, 48 h (nM).
Setting [2] is: DM1 fibroblasts, 48 h treatment, 8-point dose response, 3 μM top dose, read-out: Foci Reduction in Fibroblast EC50, 48 h.

For `CCN(CC)CCCC[C@H](NC(=O)CCCCNC(=O)c1cnn(-c2ccc(C(C)(C)C)cc2)c1)C(=O)N[C@@H](CO)C(=O)NCCOCCOCCOCCOCCOCCNC(=O)CCNC(=O)c1nc(NC(=O)c2cc(NC(=O)CCNC(=O)c3nc(NC(=O)CCCNC(=O)c4cc(NC(=O)c5nc(NC(=O)CCNC(=O)c6cc(NC(=O)c7nccn7C)cn6C)cn5C)cn4C)cn3C)cn2C)cn1C` [Compound 151], the EC50 under setting [1] is greater than 500 nM. Turning to `CCN(CC)CCCC[C@H](NC(=O)Cc1nc2cc(CC(=O)Nc3ccc(C(C)(C)C)cc3)cnc2[nH]1)C(=O)N[C@@H](CO)C(=O)NCCOCCOCCOCCOCCOCCNC(=O)CCNC(=O)c1nc(NC(=O)c2cc(NC(=O)CCNC(=O)c3nc(NC(=O)CCCNC(=O)c4cc(NC(=O)c5nc(NC(=O)CCNC(=O)c6cc(NC(=O)c7nccn7C)cn6C)cn5C)cn4C)cn3C)cn2C)cn1C` [Compound 152], under setting [1], the EC50 lay in the range of 100 to 500 nM.

With `CCN(CC)CCCC[C@H](NC(=O)N1CC(c2cnc(CNC(=O)c3ccc(C(C)(C)C)cc3)[nH]2)C1)C(=O)N[C@@H](CO)C(=O)NCCOCCOCCOCCOCCOCCNC(=O)CCNC(=O)c1nc(NC(=O)c2cc(NC(=O)CCNC(=O)c3nc(NC(=O)CCCNC(=O)c4cc(NC(=O)c5nc(NC(=O)CCNC(=O)c6cc(NC(=O)c7nccn7C)cn6C)cn5C)cn4C)cn3C)cn2C)cn1C` [Compound 155], the EC50 under setting [1] was in the range of 100 to 500 nM. For the molecule `CCN(CC)CCCC[C@H](NC(=O)OC(C)(C)C)C(=O)N[C@@H](CO)C(=O)NCCOCCOCCOCCOCCOCCNC(=O)CCNC(=O)c1nc(NC(=O)c2cc(NC(=O)CCNC(=O)c3nc(NC(=O)CCCNC(=O)c4cc(NC(=O)c5nc(NC(=O)CCNC(=O)c6cc(NC(=O)c7nccn7C)cn6C)cn5C)cn4C)cn3C)cn2C)cn1C` [Compound 157], the EC50 under setting [1] was 100 to 500 nM. For `CCN(CC)CCCCCC(=O)NCC(=O)NCCOCCOCCOCCOCCOCCNC(=O)CCNC(=O)c1nc(NC(=O)c2cc(NC(=O)CCNC(=O)c3nc(NC(=O)CCCNC(=O)c4cc(NC(=O)c5nc(NC(=O)CCNC(=O)c6cc(NC(=O)c7nccn7C)cn6C)cn5C)cn4C)cn3C)cn2C)cn1C` [Compound 158], under setting [2], the EC50 was greater than 500 nM. Take `COc1c(OCCOCCOCCOCCOCCOCCNC(=O)CCNC(=O)c2nc(NC(=O)c3cc(NC(=O)CCNC(=O)c4nc(NC(=O)CCCNC(=O)c5cc(NC(=O)c6nc(NC(=O)CCNC(=O)c7cc(NC(=O)c8nccn8C)cn7C)cn6C)cn5C)cn4C)cn3C)cn2C)cccc1C(=O)N1CCN(C(=O)COc2cccc(OCCNC(=O)CNC(=O)c3ccc(C(C)(C)C)cc3)c2)CC1` [Compound 159]: the EC50 under setting [2] was in the range of 100 to 500 nM.

In the case of `CCN(CCN(C)CCOCCOCCOCCOCCOCCNC(=O)CCNC(=O)c1nc(NC(=O)c2cc(NC(=O)CCNC(=O)c3nc(NC(=O)CCCNC(=O)c4cc(NC(=O)c5nc(NC(=O)CCNC(=O)c6cc(NC(=O)c7nccn7C)cn6C)cn5C)cn4C)cn3C)cn2C)cn1C)C(=O)CNCc1cc(C(N)=O)ccn1` [Compound 163], the EC50 under setting [2] was greater than 500 nM. For `CCN(c1cc(-c2ccc(CN3CCN(CCCCCCCNC(=O)CCNC(=O)c4nc(NC(=O)c5cc(NC(=O)CCNC(=O)c6nc(NC(=O)CCCNC(=O)c7cc(NC(=O)c8nc(NC(=O)CCNC(=O)c9cc(NC(=O)c%10nccn%10C)cn9C)cn8C)cn7C)cn6C)cn5C)cn4C)CC3)cc2)cc(C(=O)NCc2c(C)cc(C)[nH]c2=O)c1C)C1CCOCC1` [Compound 164], the EC50 under setting [2] is greater than 500 nM. On to `CCN(c1cc(-c2ccc(CN3CCN(CCOCCOCCNC(=O)CCNC(=O)c4nc(NC(=O)c5cc(NC(=O)CCNC(=O)c6nc(NC(=O)CCCNC(=O)c7cc(NC(=O)c8nc(NC(=O)CCNC(=O)c9cc(NC(=O)c%10nccn%10C)cn9C)cn8C)cn7C)cn6C)cn5C)cn4C)CC3)cc2)cc(C(=O)NCc2c(C)cc(C)[nH]c2=O)c1C)C1CCOCC1` [Compound 165], for which, under setting [2], the EC50 is greater than 500 nM. Regarding `CCN(c1cc(-c2ccc(CN3CCN(CCOCCOCCOCCOCCOCCNC(=O)CCNC(=O)c4nc(NC(=O)c5cc(NC(=O)CCNC(=O)c6nc(NC(=O)CCCNC(=O)c7cc(NC(=O)c8nc(NC(=O)CCNC(=O)c9cc(NC(=O)c%10nccn%10C)cn9C)cn8C)cn7C)cn6C)cn5C)cn4C)CC3)cc2)cc(C(=O)NCc2c(C)cc(C)[nH]c2=O)c1C)C1CCOCC1` [Compound 166], the EC50 under setting [2] was greater than 500 nM.

As to `CCN(c1cc(-c2ccc(CN3CCN(CCOCCOCCOCCOCCOCCOCCOCCOCCOCCOCCNC(=O)CCNC(=O)c4nc(NC(=O)c5cc(NC(=O)CCNC(=O)c6nc(NC(=O)CCCNC(=O)c7cc(NC(=O)c8nc(NC(=O)CCNC(=O)c9cc(NC(=O)c%10nccn%10C)cn9C)cn8C)cn7C)cn6C)cn5C)cn4C)CC3)cc2)cc(C(=O)NCc2c(C)cc(C)[nH]c2=O)c1C)C1CCOCC1` [Compound 167], the EC50 under setting [2] is greater than 500 nM. As for `CC(=O)c1cc(-c2ccccc2S(C)(=O)=O)c2cc(OCCOCCOCCNC(=O)CCNC(=O)c3nc(NC(=O)c4cc(NC(=O)CCNC(=O)c5nc(NC(=O)CCCNC(=O)c6cc(NC(=O)c7nc(NC(=O)CCNC(=O)c8cc(NC(=O)c9nccn9C)cn8C)cn7C)cn6C)cn5C)cn4C)cn3C)ccn12` [Compound 168], the EC50 under setting [2] is greater than 500 nM. Take `CC(=O)c1cc(-c2ccccc2S(C)(=O)=O)c2cc(OCCOCCOCCOCCOCCOCCNC(=O)CCNC(=O)c3nc(NC(=O)c4cc(NC(=O)CCNC(=O)c5nc(NC(=O)CCCNC(=O)c6cc(NC(=O)c7nc(NC(=O)CCNC(=O)c8cc(NC(=O)c9nccn9C)cn8C)cn7C)cn6C)cn5C)cn4C)cn3C)ccn12` [Compound 169]: the EC50 under setting [2] was greater than 500 nM.

`CC(=O)c1cc(-c2ccccc2S(C)(=O)=O)c2cc(OCCOCCOCCOCCOCCOCCOCCOCCOCCOCCOCCNC(=O)CCNC(=O)c3nc(NC(=O)c4cc(NC(=O)CCNC(=O)c5nc(NC(=O)CCCNC(=O)c6cc(NC(=O)c7nc(NC(=O)CCNC(=O)c8cc(NC(=O)c9nccn9C)cn8C)cn7C)cn6C)cn5C)cn4C)cn3C)ccn12` [Compound 170]: the EC50 under setting [2] is greater than 500 nM. On to `Cn1cc(CCn2c(CNCCOCCOCCNC(=O)CCNC(=O)c3nc(NC(=O)c4cc(NC(=O)CCNC(=O)c5nc(NC(=O)CCCNC(=O)c6cc(NC(=O)c7nc(NC(=O)CCNC(=O)c8cc(NC(=O)c9nccn9C)cn8C)cn7C)cn6C)cn5C)cn4C)cn3C)nc(-c3cnn(C)c3)c2-c2ccc(C#N)cc2)cn1` [Compound 171], for which, under setting [2], the EC50 is greater than 500 nM. In the case of `Cn1cc(CCn2c(CNCCOCCOCCOCCOCCOCCNC(=O)CCNC(=O)c3nc(NC(=O)c4cc(NC(=O)CCNC(=O)c5nc(NC(=O)CCCNC(=O)c6cc(NC(=O)c7nc(NC(=O)CCNC(=O)c8cc(NC(=O)c9nccn9C)cn8C)cn7C)cn6C)cn5C)cn4C)cn3C)nc(-c3cnn(C)c3)c2-c2ccc(C#N)cc2)cn1` [Compound 172], the EC50 under setting [2] is greater than 500 nM. On the same count and under the same terms, the figure for `CN(C)[C@@H]1CN(C2CCc3cccc(F)c32)C[C@H]1c1ccc(N2CCN(C(=O)COCCOCCOCCOCCOCCNC(=O)CCNC(=O)c3nc(NC(=O)c4cc(NC(=O)CCNC(=O)c5nc(NC(=O)CCCNC(=O)c6cc(NC(=O)c7nc(NC(=O)CCNC(=O)c8cc(NC(=O)c9nccn9C)cn8C)cn7C)cn6C)cn5C)cn4C)cn3C)CC2)cc1` (some centres unmarked) [Compound 174] is greater than 500 nM.

Regarding `CN(C)[C@@H]1CN(C2CCc3cccc(F)c32)C[C@H]1c1ccc(N2CCN(S(=O)(=O)CCOCCOCCOCCOCCOCCNC(=O)CCNC(=O)c3nc(NC(=O)c4cc(NC(=O)CCNC(=O)c5nc(NC(=O)CCCNC(=O)c6cc(NC(=O)c7nc(NC(=O)CCNC(=O)c8cc(NC(=O)c9nccn9C)cn8C)cn7C)cn6C)cn5C)cn4C)cn3C)CC2)cc1` (some centres unmarked) [Compound 175], under setting [2], the EC50 lay within 100 to 500 nM. As for `CCN(CC)CCCC[C@H](NC(=O)[C@H](CC(C)C)NC(=O)[C@H](C)NC(=O)[C@H](Cc1ccccc1)NC(=O)c1ccc(C(C)(C)C)cc1)C(=O)N[C@@H](CO)C(=O)Nc1ccc(OCCOCCOCCOCCOCCNC(=O)CCNC(=O)c2nc(NC(=O)c3cc(NC(=O)CCNC(=O)c4nc(NC(=O)CCCNC(=O)c5cc(NC(=O)c6nc(NC(=O)CCNC(=O)c7cc(NC(=O)c8nccn8C)cn7C)cn6C)cn5C)cn4C)cn3C)cn2C)cc1` [Compound 177], the 50% effective concentration (EC50) under setting [1] was less than 100 nM. As for `CCN(CC)CCCC[C@H](NC(=O)[C@H](CC(C)C)NC(=O)[C@H](C)NC(=O)[C@H](Cc1ccccc1)NC(=O)c1ccc(C(C)(C)C)cc1)C(=O)N[C@@H](CO)C(=O)Nc1ccc(OCCOCCOCCNC(=O)CCNC(=O)c2nc(NC(=O)c3cc(NC(=O)CCNC(=O)c4nc(NC(=O)CCCNC(=O)c5cc(NC(=O)c6nc(NC(=O)CCNC(=O)c7cc(NC(=O)c8nccn8C)cn7C)cn6C)cn5C)cn4C)cn3C)cn2C)cc1` [Compound 178], under setting [1], the EC50 was less than 100 nM.

As for `CCN(CC)CCCC[C@H](NC(=O)[C@H](CC(C)C)NC(=O)[C@H](C)NC(=O)[C@H](Cc1ccccc1)NC(=O)c1ccc(C(C)(C)C)cc1)C(=O)N[C@@H](CO)C(=O)N1CCC(C#CC#CC2CCN(CCOCCOCCOCCNC(=O)CCNC(=O)c3nc(NC(=O)c4cc(NC(=O)CCNC(=O)c5nc(NC(=O)CCCNC(=O)c6cc(NC(=O)c7nc(NC(=O)CCNC(=O)c8cc(NC(=O)c9nccn9C)cn8C)cn7C)cn6C)cn5C)cn4C)cn3C)CC2)CC1` [Compound 180], the EC50 under setting [1] was less than 100 nM.

With `CCN(CC)CCCC[C@H](NC(=O)[C@H](CC(C)C)NC(=O)[C@H](C)NC(=O)[C@H](Cc1ccccc1)NC(=O)c1ccc(C(C)(C)C)cc1)C(=O)N[C@@H](CO)C(=O)N1CCC(C#CC#CC2CCN(CCOCCNC(=O)CCNC(=O)c3nc(NC(=O)c4cc(NC(=O)CCNC(=O)c5nc(NC(=O)CCCNC(=O)c6cc(NC(=O)c7nc(NC(=O)CCNC(=O)c8cc(NC(=O)c9nccn9C)cn8C)cn7C)cn6C)cn5C)cn4C)cn3C)CC2)CC1` [Compound 181], the EC50 under setting [1] was less than 100 nM.

`CCN(CC)CCCC[C@H](NC(=O)[C@H](CC(C)C)NC(=O)[C@H](C)NC(=O)[C@H](Cc1ccccc1)NC(=O)c1ccc(C(C)(C)C)cc1)C(=O)N[C@@H](CO)C(=O)N1CCC(N2CCN(CCOCCOCCOCCOCCNC(=O)CCNC(=O)c3nc(NC(=O)c4cc(NC(=O)CCNC(=O)c5nc(NC(=O)CCCNC(=O)c6cc(NC(=O)c7nc(NC(=O)CCNC(=O)c8cc(NC(=O)c9nccn9C)cn8C)cn7C)cn6C)cn5C)cn4C)cn3C)CC2)CC1` [Compound 184]: under setting [1], the EC50 is greater than 500 nM.

These data come from patent US20240166693A1, “METHODS AND COMPOUNDS FOR MODULATING MYOTONIC DYSTROPY 1” (Design Therapeutics, Inc., priority 2020, published 2024).
